Where two headings read alike, the source gives them in different places.
What was measured:
[1] = tested on: Inducible NO synthase gene (inos); type: cell-based, murine; conditions: 24 hours
Excerpt: (§1) NO: 53) and anti-sense primer:[…] NO: 54). […] ID NO: 55) and anti-sense primer […] NO: 56). […] NO: 57) and anti-sense primer:[…] NO: 58).

[2] = tested on: pro- and anti-inflammatory cytokine levels in Serum; experiment: Cytokine multiplex in serum after sepsis; type: in vivo, mice; conditions: 24 hours after sepsis induction
Description: Cytokine multiplex: Brain samples were weighed and unfrosted in 100 μl of extraction buffer (PBS 1×, complete protease inhibitor, sigma-aldrich, triton 0.1%) processed in 2 ml Lysing Matrix A tubes with FastPrep-24 (MP biomedicals, Germany). Tubes were centrifuged at 20000 g at 4° C. and supernatant was collected and protein concentration was determined with light absorbance at 280 nm using a Nanodrop Lite Spectrophotometer (Thermo Scientific). Sera were used undiluted. Cytokines were measured using a Bio-Plex System and Mouse Cytokine Standard 23-Plex Group 1 kit following manufacturer's recommendations. Raw datas were analyzed by dividing the concentration of cytokine with protein concentration in lyzate and weight of sample measured on precision balance. Then every cytokine concentrations are presented as a ratio compared to the untreated sepsis group.

[3] = tested on: primary murine microglial cells; experiment: Pro- and anti-inflammatory marker transcription in primary microglial cells exposed to LPS; type: cell-based, C57/B16 mice; conditions: primary microglial cells after LPS exposure
Excerpt: as §1

CLP mice [4] = experiment: Open field test after sepsis; type: in vivo; conditions: septic mice, 10 days after sepsis, vs saline
Description: […] The experimentator was blinded to the experimental group.
Open Field Mice were placed 45 minutes before being held in the experimental room. Single mice were then placed in a squared 40 cm box in an experimental room and captured with a camera during 10 minutes. Mice were tracked using Ethovision XT and their tail, nose and barycenter was marked. The total length walked, the ratio of time spent moving/non moving, the maximum velocity and the mean distance from barycenter to arena's center were recorded. Datas are presented as Mean±SEM.
Datas are presented as mean±SEM. Sepsis presented a persisting effect on locomotor functions:sepsis lowered the distance traveled (E, p<0.05), increased the time spent not moving (F, p<0.05) and the mean distance to center (G, p<0.05) compared to control mice.

[5] = tested on: CD11b positive cells (microglial cells); experiment: mRNA expression of M1/M2 markers and cytokines in sorted CD11b positive cells after sepsis; type: in vivo, mice
Description: RNA Purification: Total brains or mircodissected brain under binoccular magnifier were collected in liquid nitrogen and stored at −80° C. before processing. Tissues were unfrosted in 1 ml of Qiazol (Qiagen, Nederland) and shredded using a TissueLyzer II and metallic beads (Qiagen, Nederland). Two hundred microlitters of chloroform (Merck, Darmstadt, Deutschland) were added before spinning for 15′ at 4° C.-20 000 rpm. The upper aqeuous phase was collected and purified using RNEasy Minikit with a DNAse step (Qiagen, Nederland) to remove any remaining genomic DNA. Purified RNA were quantified and a reverse transcription on 500 ng of RNA using SuperScript® II Reverse Transcriptase (Life Technologies) was realized. Quantitative real time polymerase chain reaction was performed on 10 ng cDNA with SYBR® Select Master Mix (Roche, Franche) following manufacturer's recommandation on a StepOne™ Real-Time PCR System (Life Technologies) and results were analyzed on StepOne softwares. Triplicates with a Cycle Threshold standard deviation <0.2 were considered for further analyzes. ΔΔCT method was used to quantify fold increases between animals from different groups to control group mean. The following primers were used.
Datas are presented as mean±SEM compared to septic placebo group set at 1.

[6] = tested on: primary murine microglial cells; experiment: Cytokine transcription in LPS-activated primary microglial cells; type: cell-based, C57/B16 mice; conditions: for increase of TNFalpha gene expression: p<0.0001; for IL6 gene expression: 24 hours
Excerpt: as §1

CLP mice [7] = experiment: Survival after cecal ligature and puncture (CLP) sepsis; type: in vivo, C57Bl/6 mice; conditions: 300 mg/Kg intraperitoneously, within the first four days, placebo 53%, n=212, p<0.001
Description: Cecal ligature and puncture: Cecal ligature and puncture on mice were performed under general anesthesia. Briefly, C57Bl/6 mice were anesthetized with an intraperitoneal injection of Xylazine (20 mg/Kg, Rompun 2%, Bayer, Leverkusen, Germany), and Ketamine (100 mg/Kg, Imalgene, Mérial, Lyon, France) in 100 μl of saline solution at 0.9%. After anesthetic administration, mice were placed in a heated cage or surgical table upon awakening to maintain a body temperature at 37° C. Absence of reaction to leg and tail pinch were checked before incision of abdominal wall and peritoneum. Caecum was found with wet cotton swabs and exposed before loose ligation with Mersilk 4.0 (Ethicon, Cincinatti, USA), 2 transfixiant punctures were realized avoiding blood vessels with a 21G needle. Feces were expressed between cotton swabs before suturing abdominal muscles and peritoneum in 2 separate plans.
Analgesia and rehydration of mice were performed with buprenorphine (0.1 mg/Kg, Buprecare, Axience, Pantin, France) every 12 hours until complete recovery. […] Clinical scoring: Sepsis severity was evaluated twice a day until day 4, or normalization of «sepsis score», a previously described score that ranges from 1 to 12. […] Each item was scored 0 or 1, with a total score rang from 0 (normal) to 12 (highly severe). […]

Caspase 3 = Caspase 3 cleavage and apoptotic cell count in brain after sepsis; type: in vivo; conditions: septic mice, Western blot cleaved caspase 3 vs procaspase 3, whole brain
Description: A—Western Blot from cleaved caspase 3 from macerated brain parenchyma. B—Mean±SEM of ratios between intensity of cleaved caspase 3 vs. procaspase 3. […] D-G Cell count for late and early stage of apoptosis. WM Whitte matter, DG, Dentate Gyms, CC3 Cleaved Caspase 3.

[8] = CD11b positive cells, 24 hours after sepsis, vs placebo

Structure (SMILES): CC[C@@H](C(N)=O)N1CCCC1=O (single isomer, unassigned) [levetiracetam]
- inos expression ([1]; high dose LPS challenge): failed to modulate
- inos expression ([1]; high dose levetiracetam, low dose LPS challenge): lowered
- cytokine concentration in plasma [2]: No significant effect
- expression of anti and proinflammatory markers [3]: modified
- open field distance traveled (sepsis-associated lowering) (CLP mice [4]): did not influenced
- open field time spent not moving (CLP mice [4]): did not influenced
- open field mean distance to center (CLP mice [4]; p=0.043 Mann-Whitney): decreased
- CD32 transcription [5, 8]: increased
- CD86 transcription [5, 8]: increased
- Il 1 beta transcription [5, 8]: increased
- MCP 1 transcription [5, 8]: increased
- anti inflammatory markers transcription [5, 8]: not increased
- microglial cell polarization ([5]; microglial cell sorting in whole brain of septic mice): polarized towards a pro-inflammatory (M1) phenotype
- increase of TNFalpha gene expression ([6]; high LPS (10 ng/mL), high dose levetiracetam (100 micrograms/mL), [0.86-0.30]): 0.58
- decrease of TNFalpha gene expression ([6]; high LPS (10 ng/mL), low dose levetiracetam (10 micrograms/mL), [0.10-0.66], p<0.01): 0.38
- IL6 gene expression ([6]; high-dose LPS (10 ng/mL), high-dose levetiracetam (100 micrograms/mL), [0.25-0.97], p<0.001): 0.61 fold
- IL1 beta expression ([6]; in vitro, activated microglial cell or not): No effect
- increase of TNFalpha gene expression ([6]; low LPS (1 ng/mL), low levetiracetam (10 micrograms/mL), [0.82-0.26]): 0.53
- IL6 gene expression ([6]; low-dose LPS challenge (1 ng/mL)): did not modify
- survival rate (CLP mice [7]): 81%
- cleavage of Caspase 3 in the brain (Caspase 3): reduces
